These results are taken from ChEMBL document CHEMBL6103594, “Synthesis and evolution of 16-membered macrolide carrimycin derivatives as a novel class of anti-HCoV-OC43 agents targeting viral FSE RNA” (Eur J Med Chem, 2025).

In data set [1] the test system is Human coronavirus 229E. In words: Antiviral activity against HCoV-229E. The class given is functional, organism-based.
Data set [2] relates to Human coronavirus OC43. The data set is described as follows: Antiviral activity against HCoV-OC43. The class given is functional, organism-based.
Data set [3] in a line: Cytotoxicity against human NCI-H460 cells incubated for 72 hrs by CCK8 assay. The class given is toxicity, cell-based. The settings on record: read-out: EC50. In general terms: Formazan colour is commonly taken as a measure of viable cells.
A short description of data set [4]: Selectivity index, ratio of CC50 for cytotoxicity against human NCI-H460 cells to EC50 for antiviral activity against HCoV-OC43 infected in human NCI-H460 cells. The settings on record: read-out: Ratio CC50/EC50. The class given is toxicity, cell-based, NCI-460.
Data set [5] relates to Human coronavirus OC43. The data set is described as follows: Antiviral activity against HCoV-OC43 infected in human NCI-H460 cells incubated for 72 hrs by CCK8 assay. The class given is functional, organism-based. The following applies: Betacoronavirus 1, NCI-H460, 72 h.

With `CO[C@@H]1[C@@H](O[C@@H]2O[C@H](C)[C@@H](O[C@H]3C[C@@](C)(O)[C@@H](O)[C@H](C)O3)[C@H](N(C)C)[C@H]2O)[C@@H](CC=O)C[C@@H](C)[C@@H](O[C@H]2CC[C@H](N(C)C)[C@@H](C)O2)/C=C/C=C/C[C@@H](C)OC(=O)C[C@H]1OC(C)=O`, the concentration giving a half-maximal response (EC50) in data set [1] (Human coronavirus 229E) is 25.4 µM; in data set [2] (Betacoronavirus 1) it was greater than 50 µM.
As for SPIRAMYCIN, the EC50 was 29.3 µM in data set [1] and greater than 50 µM in data set [2].
As to `CCC(=O)O[C@@H]1CC(=O)O[C@H](C)C/C=C/C=C/[C@H](O[C@H]2CC[C@H](N(C)C)[C@@H](C)O2)[C@H](C)C[C@H](CC=O)[C@H](O[C@@H]2O[C@H](C)[C@@H](O[C@H]3C[C@@](C)(O)[C@@H](O)[C@H](C)O3)[C@H](N(C)C)[C@H]2O)[C@H]1OC`, the concentration giving a half-maximal response (EC50) in data set [1] (Human coronavirus 229E) was 27.4 µM; in data set [2] (Betacoronavirus 1), greater than 50 µM.
For the compound `CO[C@@H]1[C@@H](O[C@@H]2O[C@H](C)[C@@H](O[C@H]3C[C@@](C)(O)[C@@H](OC(=O)CC(C)C)[C@H](C)O3)[C@H](N(C)C)[C@H]2O)[C@@H](CC=O)C[C@@H](C)[C@@H](O[C@H]2CC[C@H](N(C)C)[C@@H](C)O2)/C=C/C=C/C[C@@H](C)OC(=O)C[C@H]1O`, the half-maximal effective concentration (EC50) was found to be 3.61 µM in data set [1] (Human coronavirus 229E) and 5.95 µM in data set [2] (Betacoronavirus 1).
On to `CCCC(=O)O[C@H]1[C@H](O[C@H]2[C@@H](CC=O)C[C@@H](C)[C@@H](O[C@H]3CC[C@H](N(C)C)[C@@H](C)O3)/C=C/C=C/C[C@@H](C)OC(=O)C[C@@H](O)[C@@H]2OC)O[C@H](C)[C@@H](O[C@H]2C[C@@](C)(O)[C@@H](O)[C@H](C)O2)[C@@H]1N(C)C`, for which, in data set [3], the CC50 at 72 h worked out at 68 µM. For the same compound, the selectivity ratio in data set [4] came to 7.8. In data set [5], this compound yielded an EC50 of 8.73 µM.
The matching figures for `CO[C@@H]1[C@@H](O[C@@H]2O[C@H](C)[C@@H](O[C@H]3C[C@@](C)(O)[C@@H](O)[C@H](C)O3)[C@H](N(C)C)[C@H]2OC(=O)c2ccc(F)cc2C(F)(F)F)[C@@H](CC=O)C[C@@H](C)[C@@H](O[C@H]2CC[C@H](N(C)C)[C@@H](C)O2)/C=C/C=C/C[C@@H](C)OC(=O)C[C@H]1O`: 3.54 µM, 3 and 1.2 µM.
Regarding `CO[C@@H]1[C@@H](O[C@@H]2O[C@H](C)[C@@H](O[C@H]3C[C@@](C)(O)[C@@H](OC(=O)CC(C)C)[C@H](C)O3)[C@H](N(C)C)[C@H]2O)[C@@H](CC=O)C[C@@H](C)[C@@H](O[C@H]2CC[C@H](N(C)C)[C@@H](C)O2)/C=C/C=C/C[C@@H](C)OC(=O)C[C@H]1OC(C)=O`, the EC50 in data set [1] (Human coronavirus 229E) came to 6.38 µM; in data set [2] (Betacoronavirus 1), 11.8 µM.
Take `CO[C@@H]1[C@@H](O[C@@H]2O[C@H](C)[C@@H](O[C@H]3C[C@@](C)(O)[C@@H](O)[C@H](C)O3)[C@H](N(C)C)[C@H]2OC(=O)C2CCCC2)[C@@H](CC=O)C[C@@H](C)[C@@H](O[C@H]2CC[C@H](N(C)C)[C@@H](C)O2)/C=C/C=C/C[C@@H](C)OC(=O)C[C@H]1O`: in data set [3], the CC50 at 72 h turned out to be 20 µM. In data set [4], the selectivity ratio is less than 1.6. Further, in data set [5], the EC50 was greater than 12.5 µM.
The matching figures for `CO[C@@H]1[C@@H](O[C@@H]2O[C@H](C)[C@@H](O[C@H]3C[C@@](C)(O)[C@@H](O)[C@H](C)O3)[C@H](N(C)C)[C@H]2OC(C)=O)[C@@H](CC=O)C[C@@H](C)[C@@H](O[C@H]2CC[C@H](N(C)C)[C@@H](C)O2)/C=C/C=C/C[C@@H](C)OC(=O)C[C@H]1O`: greater than 200 µM, greater than 6.71 and 29.8 µM.
On the same counts, the results for `CCCCC(=O)O[C@H]1[C@H](C)O[C@@H](O[C@H]2[C@H](N(C)C)[C@@H](O)[C@H](O[C@H]3[C@@H](CC=O)C[C@@H](C)[C@@H](O[C@H]4CC[C@H](N(C)C)[C@@H](C)O4)/C=C/C=C/C[C@@H](C)OC(=O)C[C@@H](O)[C@@H]3OC)O[C@@H]2C)C[C@@]1(C)O` are 34 µM, 6.1 and 5.61 µM.

Broadly, the EC50 is the concentration that produces a half-maximal response. A high value points to a less potent agent.
